From the NIST ThermoML archive (doi:10.1016/j.jct.2010.01.004)
Numbers after ± are expanded uncertainties.

Tests used:
[1] = activity coefficient (dimensionless); of the first substance listed, at infinite dilution; xn = mol fraction of the nth substance listed; settings: Liquid, Chromatography, x1 = 0
[2] = 308.15 K; 101.33 kPa; Liquid; Vibrating tube method

| Structure (SMILES) | activity coefficient ([1]; 308.15 K) | activity coefficient ([1]; 318.15 K) | activity coefficient ([1]; 328.15 K) | activity coefficient ([1]; 338.15 K) | activity coefficient ([1]; 348.15 K) | activity coefficient ([1]; 358.15 K) | activity coefficient ([1]; 368.15 K) | activity coefficient ([1]; 298.15 K) | mass density [2] |
| --- | --- | --- | --- | --- | --- | --- | --- | --- | --- |
| CCO [ethanol] + CC(C)C[P+](C)(CC(C)C)CC(C)C.Cc1ccc(S(=O)(=O)[O-])cc1 | 0.263 ± 0.03 | 0.259 ± 0.03 | 0.261 ± 0.03 | 0.262 ± 0.03 | 0.266 ± 0.03 | 0.268 ± 0.03 | 0.266 ± 0.03 |  |  |
| CCc1ccccc1 [ethylbenzene] + CC(C)C[P+](C)(CC(C)C)CC(C)C.Cc1ccc(S(=O)(=O)[O-])cc1 | 2.37 ± 0.16 | 2.33 ± 0.16 | 2.25 ± 0.15 | 2.2 ± 0.15 | 2.17 ± 0.15 | 2.16 ± 0.15 | 2.09 ± 0.14 | 2.51 ± 0.17 |  |
| CCCCCCC [heptane] + CC(C)C[P+](C)(CC(C)C)CC(C)C.Cc1ccc(S(=O)(=O)[O-])cc1 | 26.4 ± 1.8 | 20.8 ± 1.4 | 16.1 ± 1.1 |  |  |  |  | 35.2 ± 2.4 |  |
| C=CCCCC [hex-1-ene] + CC(C)C[P+](C)(CC(C)C)CC(C)C.Cc1ccc(S(=O)(=O)[O-])cc1 | 16.5 ± 1.1 | 12.4 ± 0.8 | 9.35 ± 0.64 |  |  |  |  | 23.5 ± 1.6 |  |
| CCCCCC [hexane] + CC(C)C[P+](C)(CC(C)C)CC(C)C.Cc1ccc(S(=O)(=O)[O-])cc1 | 32.2 ± 2.2 | 23.3 ± 1.6 | 16.4 ± 1.1 |  |  |  |  | 48.8 ± 3.3 |  |
| CO [methanol] + CC(C)C[P+](C)(CC(C)C)CC(C)C.Cc1ccc(S(=O)(=O)[O-])cc1 | 0.164 ± 0.029 | 0.166 ± 0.029 | 0.167 ± 0.029 | 0.171 ± 0.029 | 0.175 ± 0.029 | 0.178 ± 0.029 | 0.179 ± 0.029 | 0.168 ± 0.029 |  |
| CCCCCCCCC [nonane] + CC(C)C[P+](C)(CC(C)C)CC(C)C.Cc1ccc(S(=O)(=O)[O-])cc1 | 24.7 ± 1.7 | 21.6 ± 1.5 | 19.8 ± 1.4 |  |  |  |  | 26.8 ± 1.8 |  |
| C=CCCCCCC [oct-1-ene] + CC(C)C[P+](C)(CC(C)C)CC(C)C.Cc1ccc(S(=O)(=O)[O-])cc1 | 15 ± 1 | 12.2 ± 0.8 | 10.8 ± 0.74 |  |  |  |  | 16.6 ± 1.1 |  |
| CCCCCCCC [octane] + CC(C)C[P+](C)(CC(C)C)CC(C)C.Cc1ccc(S(=O)(=O)[O-])cc1 | 25.8 ± 1.8 | 20.6 ± 1.4 | 17.2 ± 1.2 |  |  |  |  | 30.7 ± 2.1 |  |
| CCCCCO [pentan-1-ol] + CC(C)C[P+](C)(CC(C)C)CC(C)C.Cc1ccc(S(=O)(=O)[O-])cc1 |  |  |  | 0.34 ± 0.032 | 0.346 ± 0.032 | 0.354 ± 0.032 | 0.357 ± 0.033 |  |  |
| CCCCC [pentane] + CC(C)C[P+](C)(CC(C)C)CC(C)C.Cc1ccc(S(=O)(=O)[O-])cc1 | 41.5 ± 2.8 | 28.5 ± 2 | 18.5 ± 1.3 |  |  |  |  | 61.4 ± 4.2 |  |
| CCCO [propan-1-ol] + CC(C)C[P+](C)(CC(C)C)CC(C)C.Cc1ccc(S(=O)(=O)[O-])cc1 | 0.278 ± 0.03 | 0.282 ± 0.03 | 0.28 ± 0.03 | 0.284 ± 0.03 | 0.287 ± 0.031 | 0.299 ± 0.031 | 0.287 ± 0.031 |  |  |
| C1CCOC1 [tetrahydrofuran] + CC(C)C[P+](C)(CC(C)C)CC(C)C.Cc1ccc(S(=O)(=O)[O-])cc1 | 1.31 ± 0.09 | 1.22 ± 0.08 | 1.12 ± 0.07 | 1.09 ± 0.07 | 1.05 ± 0.07 | 1.05 ± 0.07 |  | 1.41 ± 0.09 |  |
| c1ccsc1 [thiophene] + CC(C)C[P+](C)(CC(C)C)CC(C)C.Cc1ccc(S(=O)(=O)[O-])cc1 | 0.848 ± 0.054 | 0.843 ± 0.054 | 0.818 ± 0.053 | 0.812 ± 0.053 | 0.805 ± 0.052 | 0.804 ± 0.052 |  | 0.901 ± 0.057 |  |
| Cc1ccccc1 [toluene] + CC(C)C[P+](C)(CC(C)C)CC(C)C.Cc1ccc(S(=O)(=O)[O-])cc1 | 1.81 ± 0.12 | 1.78 ± 0.12 | 1.69 ± 0.11 | 1.66 ± 0.11 | 1.65 ± 0.11 | 1.64 ± 0.11 | 1.61 ± 0.11 | 1.94 ± 0.13 |  |
| CC(C)C[P+](C)(CC(C)C)CC(C)C.Cc1ccc(S(=O)(=O)[O-])cc1 [triisobutylmethylphosphonium p-toluenesulfonate] |  |  |  |  |  |  |  |  | 1061 ± 3 kg/m3 |
| O [water] + CC(C)C[P+](C)(CC(C)C)CC(C)C.Cc1ccc(S(=O)(=O)[O-])cc1 |  | 0.585 ± 0.041 | 0.552 ± 0.04 | 0.534 ± 0.039 | 0.524 ± 0.039 | 0.492 ± 0.037 | 0.477 ± 0.037 |  |  |
